Laboratory results published in EP3620052A1, “USE OF PHENOXYPYRIDINYL-SUBSTITUTED (1H-1,2,4-TRIAZOL-1-YL)ALCOHOLS FOR CONTROLLING FUNGICIDAL DISEASES IN MAIZE” (Bayer Aktiengesellschaft, priority 2018, dated 2020).

Key:
Format in all cases: in vivo
maize [1] = assay: Field trials in Brazilian maize: crop response (phytotoxicity) after foliar spray; details: 125 g a.i./ha, two foliar applications, Brazil field trials, assessed 14 - 28 days after second application, 5 trials
Method: (§1) In 2017/2018 five field trials in maize were conducted in order to study the effect of compounds of formula (I) and standard azole-type fungicides regarding disease control against leaf diseases and crop safety.
(§2) The trials were done under practical field conditions in Brazil in the Safrinha season with the commercially available maize varieties P30F53 Pioneer, P30F53 RR - Roundup Ready® Pioneer, P30F53YHV Pioneer, DKB 390 Dekalb® and DKB 390 IPRO3 Dekalb®.
(§3) These trials were conducted in the following federal states in Brazil: Goias, Mato Grosso, Minas Gerais, Parana and Sao Paulo.
(§4) The tested compounds / reference products, their respective formulation type and rates of application [g a.i./ha] Tab.1: Products, formulations and rates.
(§5) The products were sprayed twice in sequential, foliar applications at growth stages BBCH EC 39 - 55 and BBCH EC 51 - 69 with a spray interval of about 2 weeks with backpack or bicycle applicators.
(§6) The water quantity for the applications was 150 l / ha.
(§7) About 14 - 28 days after the second application crop response and disease control were assessed visually by rating the damaged leaves or plant parts.

Puccinia polysora = assay: Field trials in Brazilian maize: disease control (Abbott efficacy) after foliar spray; details: 125 g a.i./ha, two foliar applications, Brazil, 1 trial; untreated control 73 % disease severity
Method: as §1, §2, §3, §4, §5, §6, §7
(§8) The efficacy against the pathogens listed in table 2 was calculated according to Abbott's formula: Efficacy (%) = (X−Y)/X × 100, [formula] wherein X is the disease severity in the control and Y is the disease severity in the treatment, and is shown in table 2 [%].

Helminthosporium spp. = assay: as above; details: 125 g a.i./ha, two foliar applications, Brazil, 3 trials; untreated control 22 % disease severity
Method: as §1, §2, §3, §4, §5, §6, §7, §8

Phaeosphaeria maydis = assay: as above; details: 125 g a.i./ha, two foliar applications, Brazil, 3 trials; untreated control 44 % disease severity
Method: as §1, §2, §3, §4, §5, §6, §7, §8

Puccinia sorghi = assay: as above; details: 125 g a.i./ha, two foliar applications, Brazil, 2 trials; untreated control 20 % disease severity
Method: as §1, §2, §3, §4, §5, §6, §7, §8

Cercospora zeae maydis = assay: as above; details: 125 g a.i./ha, two foliar applications, Brazil, 2 trials; untreated control 40 % disease severity
Method: as §1, §2, §3, §4, §5, §6, §7, §8

maize [2] = assay: Field trials in Brazilian maize: yield relative to untreated control; details: 125 g a.i./ha, two foliar applications, Brazil, 3 trials; untreated control (43 dt/ha) = 100%
Method: as §1, §2, §3, §4, §5, §6
The yield of the untreated control (43 dt/ha) is set to 100% and the yield values for the other treatments are given in percent thereof. Tab. 2: Impact of foliar applications of tested compounds on crop response, disease control and yield.

maize [3] = assay: Field trials in North American maize: crop response (phytotoxicity) after foliar spray; details: for PTX (%): one foliar application BBCH EC 63 - 65, Canada/USA, 3 trials
[4] = test system: Cochliobolus heterostrophus; assay: Field trials in North American maize: disease control (Abbott efficacy) after foliar spray; details: one foliar application, 1 trial, untreated control 12 % disease severity
Method: (§9) In 2018 eight field trials in maize were conducted in order to study the effect of compounds of formula (I) and standard azole-type fungicides regarding disease control against leaf diseases.
(§10) The trials were done under practical field conditions in Canada and the USA with the commercially available maize varieties DKC 62-08 Dekalb®, DKC 35-88 RIB RR2 BT Dekalb®, P7958 AM RR2 LL BT (Marc Hutlet Seeds Ltd.), NK1120-3122 RR+GLU+ECB+CRW (Syngenta), P9608AM LL RR2 CRW ECB (Pioneer) and Golden Bantam (conventional variety available from various companies worldwide).
(§11) These trials were conducted in the following provinces in Canada and federal states in North America: Ontario (Canada) and Georgia, Indiana, Iowa, Michigan, Ohio (all USA).
(§12) The tested compounds / reference products, their respective formulation type and rates of application [g a.i./ha] Tab.3: Products, formulations and rates.
(§13) In table 4 details of the formulations of (1-02) used in the different trials are listed. Tab.4: Formulations of (1-02) and a tank mixed surfactant used in different trials.
(§14) The products were sprayed with one foliar application at growth stage BBCH EC 63 - 65 with a high clearance sprayer or a backpack applicator.
(§15) The water quantity for the applications varied from 150 to 300 l/ha.
(§16) About 23 - 35 days after application the disease control was assessed visually by rating the damaged leaves or plant parts.
(§17) The efficacy against the pathogens listed in table 5 was calculated according to Abbott's formula: Efficacy (%) = (X−Y)/X × 100, [formula] wherein X is the disease severity in the control and Y is the disease severity in the treatment, and is shown in table 5 [%].

Setosphaeria turcica = assay: as above; details: one foliar application, 2 trials, untreated control 18 % disease severity
Method: as §9, §10, §11, §12, §13, §14, §15, §16, §17

Kabatiella zeae = assay: as above; details: one foliar application, 1 trial, untreated control 17 % disease severity
Method: as §9, §10, §11, §12, §13, §14, §15, §16, §17

maize [5] = assay: Field trials in North American maize: yield relative to untreated control; details: for Yield (% of Control): one foliar application, 2 trials, untreated control (112 dt/ha) = 100%
Method: as §9, §10, §11, §12, §13, §14, §15
The yield of the untreated control (112 dt/ha) is set to 100% and the yield values for the other treatments are given in percent thereof Tab. 5: Impact of foliar applications of tested compounds on disease control.

[6] = Canada/USA field trials, 60 -125 g a.i./ha

Structure (SMILES)	PTX (%) (maize [1])	Puccinia polysora (% efficacy) (Puccinia polysora) [%]	Helminthosporium spp. (% efficacy) (Helminthosporium spp.) [%]	Phaeosphaeria maydis (% efficacy) (Phaeosphaeria maydis) [%]	Puccinia sorghi (% efficacy) (Puccinia sorghi) [%]	Cercospora zeae maydis (% efficacy) (Cercospora zeae maydis) [%]	Yield (% of Control) (maize [2])	PTX (%) (maize [3]; 60 g a.i./ha (100 EC or 250 SC))	PTX (%) (maize [3]; 125 g a.i./ha (100 EC or 250 SC))	crop safety (conclusion in words) (maize [3]; [6])	Cochliobolus heterostrophus (% efficacy) ([4]; 60 g a.i./ha) [%]	Cochliobolus heterostrophus (% efficacy) ([4]; 125 g a.i./ha) [%]	Setosphaeria turcica (% efficacy) (Setosphaeria turcica; 60 g a.i./ha) [%]	Setosphaeria turcica (% efficacy) (Setosphaeria turcica; 125 g a.i./ha) [%]	Kabatiella zeae (% efficacy) (Kabatiella zeae; 60 g a.i./ha) [%]	Kabatiella zeae (% efficacy) (Kabatiella zeae; 125 g a.i./ha) [%]	Yield (% of Control) (maize [5]; 60 g a.i./ha)	Yield (% of Control) (maize [5]; 125 g a.i./ha)	impact on yield (conclusion in words) (maize [5]; [6])
CC(O)(Cn1cncn1)c1ccc(Oc2ccc(Cl)cc2)nc1C(F)(F)F (centres unmarked) [(I-01), 2-[6-(4-chlorophenoxy)-2-(trifluoromethyl)-3-pyridyl]-1-(1,2,4-triazol-1-yl)propan-2-ol]	0	76	65	68	71	61	123 % of Control												
CC(O)(Cn1cncn1)c1ccc(Oc2ccc(Br)cc2)nc1C(F)(F)F (centres unmarked) [(I-02), 2-[6-(4-bromophenoxy)-2-(trifluoromethyl)-3-pyridyl]-1-(1,2,4-triazol-1-yl)propan-2-ol]	0	74	63	64	68	70	112 % of Control	0	0	completely safe on the crop	91	97	57	61	89	95	120 % of Control	115 % of Control	positive impact on yield
